Data from US9408856B2, “Topical steroidal formulations” (Temple University—Of The Commonwealth System of Higher …, priority 2008, dated 2016).
“Also recorded” adds a separate entry of the source.

Test system: dexamethasone-induced thymic and splenic atrophy
Assay: Dexamethasone-induced thymic and splenic atrophy in mice
Type: in vivo, CD-1 mice
Settings: for protection against DEX-induced thymic and splenic atrophy: CD-1 mice
Description: Administration of dehydroepiandrosterone (DHEA, 60 mg/kg, s.c.) for three days partially reverse thymic and splenic atrophy induced by a single injection of dexamethasone (1.6 mg/mouse). In this experiment, the efficacy of either 10 mg/kg or 20 mg/kg DHEA administered s.c. versus the effect of 10 mg/kg or 20 mg/kg fluasterone was investigated.
5% Cremophor (polyethoxylated castor oil; Sigma Chemicals)-95% saline vehicle was prepared using 95 mL of sterile 0.9% NaCl (filtered through sterile 0.22 micron filter) and 5 mL of Cremophor. The Cremophor was dissolved by swirling for approximately 5 minutes.
Dexamethasone solutions were prepared by dissolving dexamethasone (Sigma Chemicals) in absolute ethanol. For example, 71.9 mg of dexamethasone was dissolved in 2.9 mL of absolute ethanol. In order to prevent precipitation, the solution was kept on a hotplate between injections.
For the 10 mg/kg suspension, 25.7 mg of DHEA was weighed out, transferred to a glass scintillation vial, and 10.3 mL of the Cremophor-saline vehicle was added. The DHEA suspension was homogenized using a Tissumizer at 80% power for 30 sec. The Tissumizer was rinsed with 70% ethanol prior to homogenization. After the 10 mg/kg DHEA suspension was homogenized the probe was rinsed 2× with 50 mL of absolute ethanol, then with 50 mL of 70% ethanol, and then dried with sterile gauze. For the 20 mg/kg DHEA suspension, 50.9 mg DHEA was suspended in 10.2 mL of Cremophor-saline vehicle.
19.4 mg of fluasterone was weighed out and transferred to a glass scintillation vial. 7.8 mL of Cremophor-saline vehicle was added to the vial and the contents of the vial were homogenized with a Tissumizer as described previously. Prior to preparing the 20 mg/kg fluasterone, the probe was rinsed 2× with 50 mL of absolute ethanol and 1× with 50 mL of 70% ethanol. For the 20 mg/kg suspension, 47.0 mg was weighed out and transferred to a glass scintillation vial. 9.4 mL of Cremophor-saline vehicle was added to the vial and the contents of the vial were homogenized with a Tissumizer as described above.
Female CD-1 mice, 43-45 days old, were obtained from Charles River Laboratories. The mice were housed 5 per cage in plastic shoebox cages with ad libitum access to Purina chow 5015 and water in the Pharmacy CAF with 12 hr of alternating light and darkness.
Prior to the experiment the mice were weighed, separated into 6 groups containing 5 mice each and treated as follows:
Mice were treated s.c. with 0.1 mL of 5% Cremophor-95% saline for three days. On the third day, the mice were also treated s.c. with 1.6 mg of dexamethasone dissolved in 0.06 mL of absolute. ethanol.
Mice were treated s.c. with 0.25 mg of DHEA suspended in 0.1 mL of 5% Cremophor-95% saline for three days. On the third day, the mice were also treated s.c. with 1.6 mg of dexamethasone dissolved in 0.06 mL of absolute ethanol.
Mice were treated s.c. with 0.5 mg of DHEA suspended in 0.1 mL of 5% Cremophor-95% saline for three days. On the third day, the mice were also treated s.c. with 1.6 mg of dexamethasone dissolved in 0.06 mL of absolute ethanol.
Mice were treated s.c. with 0.25 mg of fluasterone suspended in 0.1 mL of 5% Cremophor-95% saline for three days. On the third day, the mice were also treated s.c. with 1.6 mg of dexamethasone dissolved in 0.06 mL of absolute ethanol.
Mice were treated s.c. with 0.5 mg of fluasterone suspended in 0.1 mL of 5% Cremophor-95% saline for three days. On the third day, the mice were also treated s.c. with 1.6 mg of dexamethasone dissolved in 0.06 mL of absolute ethanol.
All s.c. injections were made in the nape. All mice were lightly anesthetized while the s.c. injections were done.
Twenty-four hours after dexamethasone treatment, the mice were euthanized by an overdose of isoflurane. The spleen and thymus were removed, cleaned of any adventitia, rinsed, blotted on filter paper, and weighed. […]

[1] = Table 12, 10 mg/kg s.c. 3 days + dexamethasone 1.6 mg s.c. on day 3, 24 h after dexamethasone
[2] = Table 12, 20 mg/kg s.c. 3 days + dexamethasone 1.6 mg s.c. on day 3, 24 h after dexamethasone
[3] = Table 14, micronized steroid 10 mg/kg + dexamethasone
[4] = Table 14, micronized steroid 20 mg/kg + dexamethasone
[5] = Table 15, steroid 10 mg/kg in Cremophor-saline + dexamethasone
[6] = Table 16, steroid 5 mg/kg + dexamethasone
[7] = Table 16, steroid 10 mg/kg + dexamethasone

C[C@]12CCCCC1=CC[C@@H]1[C@@H]2CC[C@]2(C)C(=O)[C@H](F)C[C@@H]12 [Fluasterone, 16α-fluoro-5-androsten-17-one] was tested, and the “protection against DEX-induced thymic and splenic atrophy” value (5 mg/kg) was “significant protection”, the “protection against DEX-induced thymic and splenic atrophy” value (10 mg/kg) was “highly active; also recorded: as active as DHEA at 60 mg/kg” and the “potency relative to DHEA in protecting against dexamethasone-induced thymic and splenic atrophy” value (Example 8, micronized) was “about 6 ×”. For the same compound, the “Body Weight” value [1] was 24.3 ± 1.0, the Spleen wt [1] was 77.5 ± 14.4 and the “Spleen wt/BW” value [1] was 3.2 ± 0.5. For the same compound, the Thymus wt [1] was 60.9 ± 5.2, the “Thymus wt/BW” value [1] was 2.5 ± 0.3 and the “Body Weight” value [2] was 25.2 ± 0.6. For the same compound, the Spleen wt [2] was 73.9 ± 13.8, the “Spleen wt/BW” value [2] was 2.9 ± 0.6 and the Thymus wt [2] was 60.8 ± 5.3. For the same compound, the “Thymus wt/BW” value [2] was 2.4 ± 0.2, the “Body Weight” value [3] was 26.7 ± 3.6 and the Spleen wt [3] was 83.0 ± 6.2. For the same compound, the “Spleen wt/BW” value [3] was 3.1 ± 0.3, the Thymus wt [3] was 68.0 ± 11.5 and the “Thymus wt/BW” value [3] was 2.5 ± 0.3. The “Body Weight” value [4] was 27.2 ± 3.1, the Spleen wt [4] was 83.1 ± 7.9 and the “Spleen wt/BW” value [4] was 3.1 ± 0.4. For the same compound, the Thymus wt [4] was 66.3 ± 9.0, the “Thymus wt/BW” value [4] was 2.4 ± 0.2 and the “Body Weight” value [5] was 24.8 ± 0.8. For the same compound, the Spleen wt [5] was 80.0 ± 7.7, the “Spleen wt/BW” value [5] was 3.2 ± 0.4 and the Thymus wt [5] was 67.5 ± 3.9. For the same compound, the “Thymus wt/BW” value [5] was 2.7 ± 0.2, the “Body Weight” value [6] was 25.7 ± 1.7 and the Spleen wt [6] was 62.0 ± 10.2. For the same compound, the “Spleen wt/BW” value [6] was 2.4 ± 0.3, the Thymus wt [6] was 50.8 ± 10.9 and the “Thymus wt/BW” value [6] was 2.0 ± 0.3. The “Body Weight” value [7] was 25.2 ± 1.4, the Spleen wt [7] was 89.4 ± 12.3 and the “Spleen wt/BW” value [7] was 3.5 ± 0.4. The Thymus wt [7] was 65.6 ± 4.4, the “Thymus wt/BW” value [7] was 2.6 ± 0.2 and the “Approximate Potency Compared to Fluasterone in Protecting Against DEX-induced Thymic and Splenic Involution” value (fluasterone = 1, mice) was 1. For the same compound, the “rank of activity among steroids tested against DEX-induced thymic and splenic involution” value (mice) was “most active steroid tested” and the “rank of activity among steroids tested against DEX-induced thymic and splenic involution” value (mice, listed as fluasterone) was “most potent compound”.
